Assay results published in patent US12637473B2, “MDM2 protein degraders” (THE REGENTS OF THE UNIVERSITY OF MICHIGAN, priority 2016, dated 2026).

Legend:
RS4; 11 cell line = assay: CellTiter-Glo Luminescent Cell Viability Assay, cell growth inhibition; format: cell-based; conditions: Homo sapiens, 96 h, 4 days
Procedure: (§1) Cell growth inhibitory activity of representative MDM2 protein degraders was determined using CellTiter-Glo® Luminescent Cell Viability Assay. Cells were seeded in 384-well white opaque cell culture plates at a density of 2,000 cells/well with serially diluted compounds and incubated at 37° C. in an atmosphere of 95% air and 5% CO2 for 4 days. Cell viability was determined using the CellTiter-Glo® Luminescent Cell Viability Assay Kit (Promega, Madison, WI) according to the manufacture's instruction. Briefly, a volume of CellTiter-Glo® Reagent equal to the volume of cell culture medium was added to each well, and then the plates were incubated at room temperature for 10-20 minutes. The luminescent signal was measured using a Tecan Infinite M1000 multimode microplate reader (Tecan, Morrisville, NC). The half maximal inhibitory concentration (IC50) was calculated using the GraphPad Prism 5 software (GraphPad Software, La Jolla, CA). Cpd. […] The structure of Cpd.

MV4-11 cell line = assay: as above; format: cell-based; conditions: Homo sapiens, 96 h, 4 days
Procedure: as §1

Structure (SMILES)	IC50 (RS4; 11 cell line)	IC50 (MV4-11 cell line)
O=C(COc1cccc2c1C(=O)N(C1CCC(=O)NC1=O)C2=O)NCCCCNC(=O)c1ccc(NC(=O)[C@@H]2NC3(CCCCC3)[C@@]3(C(=O)Nc4cc(Cl)ccc43)[C@H]2c2cccc(Cl)c2F)cc1 (stereo partly drawn) [Cpd. No. 1, (3′R,4'S,5′R)-6″-chloro-4′-(3-chloro-2-fluorophenyl)-N-(4-((4-(2-((2-(2,6-dioxopiperidin-3-yl)-1,3-dioxoisoindolin-4-yl)oxy)acetamido)butyl)carbamoyl)phenyl)-2″-oxodispiro[cyclohexane-1,2′-pyrrolidine-3′,3″-indoline]-5′-carboxamide]	233 nM	416 nM
O=C(CNc1cccc2c1C(=O)N(C1CCC(=O)NC1=O)C2=O)NCCCOCCOCCOCCCNC(=O)c1ccc(NC(=O)[C@@H]2NC3(CCCCC3)[C@@]3(C(=O)Nc4cc(Cl)ccc43)[C@H]2c2cccc(Cl)c2F)cc1 (stereo partly drawn) [Cpd. No. 3, (3′R,4'S,5′R)-6″-chloro-4′-(3-chloro-2-fluorophenyl)-N-(4-((1-((2-(2,6-dioxopiperidin-3-yl)-1,3-dioxoisoindolin-4-yl)amino)-2-oxo-7,10,13-trioxa-3-azahexadecan-16-yl)carbamoyl)phenyl)-2″-oxodispiro[cyclohexane-1,2′-pyrrolidine-3′,3″-indoline]-5′-carboxamide]	22 nM	5.6 nM
O=C1CCC(N2C(=O)c3cccc(NCCNC(=O)c4ccc(NC(=O)[C@@H]5NC6(CCCCC6)[C@@]6(C(=O)Nc7cc(Cl)ccc76)[C@H]5c5cccc(Cl)c5F)cc4)c3C2=O)C(=O)N1 (stereo partly drawn) [Cpd. No. 7, (3′R,4'S,5′R)-6″-chloro-4′-(3-chloro-2-fluorophenyl)-N-(4-((2-((2-(2,6-dioxopiperidin-3-yl)-1,3-dioxoisoindolin-4-yl)amino)ethyl)carbamoyl)phenyl)-2″-oxodispiro[cyclohexane-1,2′-pyrrolidine-3′,3″-indoline]-5′-carboxamide]	15 nM	20 nM
CC(C)[C@@H](CS(=O)(=O)C(C)C)N1C(=O)[C@@](C)(CC(=O)NCCOCCOCCNc2cccc3c2C(=O)N(C2CCC(=O)NC2=O)C3=O)C[C@H](c2cccc(Cl)c2)[C@H]1c1ccc(Cl)cc1 (stereo partly drawn) [Cpd. No. 60, 2-((3R,5R,6S)-5-(3-chlorophenyl)-6-(4-chlorophenyl)-1-((S)-1-(isopropylsulfonyl)-3-methylbutan-2-yl)-3-methyl-2-oxopiperidin-3-yl)-N-(2-(2-(2-((2-(2,6-dioxopiperidin-3-yl)-1,3-dioxoisoindolin-4-yl)amino)ethoxy)ethoxy)ethyl)acetamide]	404 nM	
Cc1ncsc1-c1ccc(CNC(=O)[C@@H]2C[C@@H](O)CN2C(=O)[C@@H](NC(=O)CCCCNC(=O)c2ccc(NC(=O)[C@@H]3NC4(CCCCC4)[C@@]4(C(=O)Nc5cc(Cl)ccc54)[C@H]3c3cccc(Cl)c3F)cc2)C(C)(C)C)cc1 [compound 41]	991 nM	
Cc1ncsc1-c1ccc(CNC(=O)[C@@H]2C[C@@H](O)CN2C(=O)[C@@H](NC(=O)CCOCCOCCNC(=O)c2ccc(NC(=O)[C@@H]3NC4(CCCCC4)[C@@]4(C(=O)Nc5cc(Cl)ccc54)[C@H]3c3cccc(Cl)c3F)cc2)C(C)(C)C)cc1 [compound 42]	677 nM	
Cc1ncsc1-c1ccc(CNC(=O)[C@@H]2C[C@@H](O)CN2C(=O)[C@@H](NC(=O)CCOCCOCCOCCNC(=O)c2ccc(NC(=O)[C@@H]3NC4(CCCCC4)[C@@]4(C(=O)Nc5cc(Cl)ccc54)[C@H]3c3cccc(Cl)c3F)cc2)C(C)(C)C)cc1 [compound 43]	445 nM	

Other lines, results leading:

IC50 (RS4; 11 cell line)	IC50 (MV4-11 cell line)	Structure (SMILES)
85 nM	157 nM	O=C(COc1cccc2c1C(=O)N(C1CCC(=O)NC1=O)C2=O)NCCCOCCOCCOCCCNC(=O)c1ccc(NC(=O)[C@@H]2NC3(CCCCC3)[C@@]3(C(=O)Nc4cc(Cl)ccc43)[C@H]2c2cccc(Cl)c2F)cc1 (stereo partly drawn) [Cpd. No. 2, (3′R,4'S,5′R)-6″-chloro-4′-(3-chloro-2-fluorophenyl)-N-(4-((1-((2-(2,6-dioxopiperidin-3-yl)-1,3-dioxoisoindolin-4-yl)oxy)-2-oxo-7,10,13-trioxa-3-azahexadecan-16-yl)carbamoyl)phenyl)-2″-oxodispiro[cyclohexane-1,2′-pyrrolidine-3′,3″-indoline]-5′-carboxamide]
14 nM	6 nM	O=C1CCC(N2C(=O)c3cccc(OCCOCCOCCOCCNC(=O)c4ccc(NC(=O)[C@@H]5NC6(CCCCC6)[C@@]6(C(=O)Nc7cc(Cl)ccc76)[C@H]5c5cccc(Cl)c5F)cc4)c3C2=O)C(=O)N1 (stereo partly drawn) [Cpd. No. 4, (3′R,4'S,5′R)-6″-chloro-4′-(3-chloro-2-fluorophenyl)-N-(4-((2-(2-(2-(2-((2-(2,6-dioxopiperidin-3-yl)-1,3-dioxoisoindolin-4-yl)oxy)ethoxy)ethoxy)ethoxy)ethyl)carbamoyl)phenyl)-2″-oxodispiro[cyclohexane-1,2′-pyrrolidine-3′,3″-indoline]-5′-carboxamide]
2.2 nM	15 nM	O=C1CCC(N2C(=O)c3cccc(NCCCOCCOCCOCCCNC4CCN(C(=O)c5ccc(NC(=O)[C@@H]6NC7(CCCCC7)[C@@]7(C(=O)Nc8cc(Cl)ccc87)[C@H]6c6cccc(Cl)c6F)cc5)CC4)c3C2=O)C(=O)N1 (stereo partly drawn) [Cpd. No. 5, (3′R,4'S,5′R)-6″-chloro-4′-(3-chloro-2-fluorophenyl)-N-(4-(4-((3-(2-(2-(3-((2-(2,6-dioxopiperidin-3-yl)-1,3-dioxoisoindolin-4-yl)amino)propoxy)ethoxy)ethoxy)propyl)amino)piperidine-1-carbonyl)phenyl)-2″-oxodispiro[cyclohexane-1,2′-pyrrolidine-3′,3″-indoline]-5′-carboxamide]
38 nM	37 nM	O=C1CCC(N2C(=O)c3cccc(NCCOCCOCCOCCOc4ccc(NC(=O)c5ccc(NC(=O)[C@@H]6NC7(CCCCC7)[C@@]7(C(=O)Nc8cc(Cl)ccc87)[C@H]6c6cccc(Cl)c6F)cc5)cc4)c3C2=O)C(=O)N1 (stereo partly drawn) [Cpd. No. 6, (3′R,4'S,5′R)-6″-chloro-4′-(3-chloro-2-fluorophenyl)-N-(4-((4-(2-(2-(2-(2-((2-(2,6-dioxopiperidin-3-yl)-1,3-dioxoisoindolin-4-yl)amino)ethoxy)ethoxy)ethoxy)ethoxy)phenyl)carbamoyl)phenyl)-2″-oxodispiro[cyclohexane-1,2′-pyrrolidine-3′,3″-indoline]-5′-carboxamide]
14 nM		COc1cc(C(=O)NCCCOCCOCCOCCCNc2cccc3c2C(=O)N(C2CCC(=O)NC2=O)C3=O)ccc1NC(=O)[C@@H]1N[C@@H](CC(C)(C)C)[C@](C#N)(c2ccc(Cl)cc2F)[C@H]1c1cccc(Cl)c1F (stereo partly drawn) [Cpd. No. 58, (2R,3S,4R,5S)-3-(3-chloro-2-fluorophenyl)-4-(4-chloro-2-fluorophenyl)-4-cyano-N-(4-((3-(2-(2-(3-((2-(2,6-dioxopiperidin-3-yl)-1,3-dioxoisoindolin-4-yl)amino)propoxy)ethoxy)ethoxy)propyl)carbamoyl)-2-methoxyphenyl)-5-neopentylpyrrolidine-2-carboxamide]
98 nM		CC(C)[C@@H](CS(=O)(=O)C(C)C)N1C(=O)[C@@](C)(CC(=O)NCCCOCCOCCOCCCNc2cccc3c2C(=O)N(C2CCC(=O)NC2=O)C3=O)C[C@H](c2cccc(Cl)c2)[C@H]1c1ccc(Cl)cc1 (stereo partly drawn) [Cpd. No. 61, 2-((3R,5R,6S)-5-(3-chlorophenyl)-6-(4-chlorophenyl)-1-((S)-1-(isopropylsulfonyl)-3-methylbutan-2-yl)-3-methyl-2-oxopiperidin-3-yl)-N-(3-(2-(2-(3-((2-(2,6-dioxopiperidin-3-yl)-1,3-dioxoisoindolin-4-yl)amino)propoxy)ethoxy)ethoxy)propyl)acetamide]
